Results published in ChEMBL document CHEMBL5107977, “Inhibition of MARK4 by serotonin as an attractive therapeutic approach to combat Alzheimer's disease and neuroinflammation” (RSC Med Chem, 2022).

Key:
[1] = molecular target: T1, MAP/microtubule affinity-regulating kinase 4 (Homo sapiens) (UniProt Q96L34); assay: Binding affinity to MARK4 (unknown origin) assessed as association constant by isothermal titration calorimetry
T1 sequence (whole entry): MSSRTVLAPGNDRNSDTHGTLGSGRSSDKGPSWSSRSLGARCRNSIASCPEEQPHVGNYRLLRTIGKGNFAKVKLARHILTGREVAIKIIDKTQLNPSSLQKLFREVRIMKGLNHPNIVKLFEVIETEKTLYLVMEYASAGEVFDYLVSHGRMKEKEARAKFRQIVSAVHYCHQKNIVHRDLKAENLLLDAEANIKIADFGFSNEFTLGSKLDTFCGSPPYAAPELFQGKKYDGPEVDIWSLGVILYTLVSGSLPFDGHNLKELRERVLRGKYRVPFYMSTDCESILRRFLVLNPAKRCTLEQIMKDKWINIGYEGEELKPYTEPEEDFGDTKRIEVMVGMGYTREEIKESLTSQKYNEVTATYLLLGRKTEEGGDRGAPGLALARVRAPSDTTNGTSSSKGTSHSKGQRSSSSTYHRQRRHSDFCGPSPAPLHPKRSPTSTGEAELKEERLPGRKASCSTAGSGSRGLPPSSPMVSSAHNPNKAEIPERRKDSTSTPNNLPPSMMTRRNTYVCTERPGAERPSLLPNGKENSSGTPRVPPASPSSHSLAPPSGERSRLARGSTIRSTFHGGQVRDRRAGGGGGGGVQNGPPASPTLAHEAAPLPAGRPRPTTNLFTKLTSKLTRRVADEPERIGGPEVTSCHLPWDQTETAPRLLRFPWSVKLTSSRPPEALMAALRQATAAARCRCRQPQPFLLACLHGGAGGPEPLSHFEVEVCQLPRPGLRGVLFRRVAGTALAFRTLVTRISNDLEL

[2] = molecular target: T1, MAP/microtubule affinity-regulating kinase 4 (Homo sapiens); assay: Binding affinity to MARK4 (unknown origin) assessed as binding constant by fluorescence binding assay based spectroscopy
[3] = molecular target: T1, MAP/microtubule affinity-regulating kinase 4 (Homo sapiens); assay: Binding affinity to MARK4 (unknown origin) assessed as change in enthalpy by isothermal titration calorimetry
[4] = molecular target: T1, MAP/microtubule affinity-regulating kinase 4 (Homo sapiens); assay: Binding affinity to MARK4 (unknown origin) assessed as Gibbs free energy change by MM-GBSA method
[5] = molecular target: T1, MAP/microtubule affinity-regulating kinase 4 (Homo sapiens); assay: Binding affinity to MARK4 (unknown origin) assessed as change in entropy by isothermal titration calorimetry
[6] = molecular target: T2, MAP/microtubule affinity-regulating kinase 4 (Homo sapiens, UniProt Q96L34); assay: Inhibition of MARK4 (unknown origin) ATPase activity using ATP as substrate incubated for 1.5 hr in presence of MgCl2 by Biomol green reagent based ELISA
T2 sequence (Q96L34 whole entry): T1 sequence (whole entry)

NCCc1c[nH]c2ccc(O)cc12 [SEROTONIN]
Ka [1]: 148 10^4/M | K [2]: 0.3 10^6/M | deltaH [3]: -88.2 kcal/mol | deltaG [4]: -32.8 kcal/mol | deltaS [5]: -286 cal/mol/deg | IC50 [6]: 2.99 µM
